PubChem BioAssay (NCI)
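96-well plates; 48 h exposure; 5 concentrations. Endpoints by linear interpolation between flanking doses. Not reached: highest tested concentration assigned. GI50 = concentration required for 50% inhibition of growth. Definition used: TGI = concentration required for complete inhibition of growth.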

Key:
Test in all cases: NCI-60 cell line screen, 48 h
[1] = test system: IGROV1 ovarian
[2] = test system: ACHN renal
[3] = test system: SNB-19 CNS
[4] = test system: COLO 205 colon
[5] = test system: HL-60(TB) leukemia
[6] = test system: UO-31 renal
[7] = test system: SR leukemia
[8] = test system: HOP-92 NSCLC
[9] = test system: RPMI-8226 leukemia

Row | Structure (SMILES) | GI50 [1] [µM] | TGI [1] [µM] | GI50 [2] [µM] | TGI [2] [µM] | GI50 [3] [µM] | TGI [3] [µM] | GI50 [4] [µM] | TGI [4] [µM] | GI50 [5] [µM] | TGI [5] [µM] | GI50 [6] [µM] | TGI [6] [µM] | TGI [7] [µM] | TGI [8] [µM] | TGI [9] [µM] | GI50 [7] [µM] | GI50 [8] [µM] | GI50 [9] [µM]
1 | CCCCn1c(-c2ccc(C(=O)O/N=C(\N)c3ccc4c(c3)OCO4)cc2)nc(-c2ccccc2)c1-c1ccccc1 | 0.465 | 1.8 | 1.35 | 2.81 | 3.04 | 43.6 | 2.69 | 11 | 0.603 | 2.75 | 0.229 | 0.562 |  |  |  |  |  | 
2 | CC(C)CCC1(CCN)C(=O)NC(=O)NC1=O |  | > 100 |  | > 100 |  | > 100 |  | > 100 |  | 66.7 |  | > 100 | > 100 | > 100 | > 100 |  |  | 
3 | N#CNC(N)=Nc1ccc(Cl)cc1 |  | > 100 |  | > 100 |  | > 100 |  | > 100 |  |  |  | > 100 | > 100 | > 100 | > 100 |  |  | 
4 | c1c[nH]c(CN2CCOCC2)n1 |  | > 100 |  | > 100 |  | > 100 |  | > 100 |  | > 100 |  | > 100 | > 100 | > 100 | > 100 |  |  | 
5 | CN1/C(=C\C=C\C2=[N+](C)c3ccccc3C2(C)C)C(C)(C)c2ccccc21 | 0.116 | 1.74 | 0.268 | 3.15 | 0.067 | 12 | 0.0457 | 0.257 | 0.0271 | 0.217 | 0.229 | 3.23 | 4.44 | 0.58 | 1.33 | 0.194 | 0.128 | 0.0119
6 | COc1ccc2c(c1)/C(=C/c1cc(OC)c(OC)c(OC)c1)C(=O)N2 | 0.268 | > 53.8 | 4.19 | > 100 | 0.433 | > 100 | 0.517 | 3.03 | 0.0908 | > 100 | 2.74 | > 100 | 0.59 | > 33.9 | 1.18 |  | 1.43 | 0.275
7 | O=S(=O)(CCCl)c1ccc(Cl)cc1 | 2.41 | 7.44 | 3.52 | 13.1 | 13.2 | 41.1 | 3.74 | 11.7 | 2.36 | 9.79 | 2.45 | 8.16 | > 100 | 6.57 | 12 | 3.41 | 2.2 | 2.8
8 | Oc1ccccc1-c1nn(CNc2ccccc2Cl)c(=S)o1 | > 100 | > 100 | 16.8 | 38.5 | > 100 | > 100 | 27 | > 100 |  |  | > 100 | > 100 | 89.6 | 66.2 | 59.6 | 25.2 | 16.4 | 20.2
